Values quoted from earlier work as cited in patent US8524697B2, “C20-C21 substituted glucocorticoid receptor agonists” (Merck Sharp & Dohme Corp., priority 2007, dated 2013).

Molecular target: SYK kinase (Homo sapiens, UniProt P43405)
Details: symptoms associated with chronic nasal congestion

Oc1cccc(Nc2ncc(F)c(Nc3cccc(O)c3)n2)c1 [Example R112]
absolute difference over placebo: 9% | improvement from baseline measurements (prior to drug initiation): up to 38% | relative improvement over placebo: greater than 20%
